According to patent publication US11932626B2, “2-pyrimidone analogs as potent antiviral agents against Alphaviruses” (priority 2020, dated 2024):
pEC50: −log10 of the molar value.

Assays:
CHIKV = CHIKV virus titer reduction (VTR) assay in NHDF cells; type: cell-based; conditions: Chikungunya virus; for log reduction at 10 µM: CHIKV titer reduction at 10 μM, normal human dermal fibroblasts (NHDF) cells; for EC90: effective concentration of 90% inhibition of virus in a VTR assay, NHDF cells
[1] = system: CHIKV linked NanoLuc luciferase reporter; assay: microbe, parasite or virus in culture; type: cell-based; conditions: Chikungunya virus, read-out: CHIKV EC50
VEEV = assay: microbe, parasite or virus in culture; type: cell-based; conditions: Venezuelan equine encephalitis virus, NHDF; for EC90: read-out: VEEV EC90; for log reduction at 10 µM: read-out: VEEV VTR
VEEV (TC-83) = assay: microbe, parasite or virus in culture; type: cell-based; conditions: Venezuelan equine encephalitis virus, read-out: VEEV EC50
in vitro = conditions: human

Structure (SMILES) | log reduction at 10 µM (CHIKV) | EC90 (CHIKV) [µM] | pEC50 [1] | EC90 (VEEV) [µM] | pEC50 (VEEV (TC-83)) | CC50 (in vitro) [µM] | log reduction at 10 µM (VEEV)
COC(=O)c1c(SCC(=O)NC23CC4CC(CC(C4)C2)C3)nc(=O)[nH]c1C [compound 1] | 6.9 | 0.089 | 6.18 | 1.9 | 5.36 | > 127 | –
Cc1[nH]c(=O)nc(SCC(=O)NC23CC4CC(CC(C4)C2)C3)c1C#N [compound 2] | 1.25 | – | 4.64 | – | < 4.40 | > 40 | 1.1
O=C(CSc1cc[nH]c(=O)n1)NC12CC3CC(CC(C3)C1)C2 [compound 3, N-(Adamantan-1-Yl)-2-((2-Oxo-1,2-Dihydropyrimidin-4-Yl)Thio)Acetamide] | 7.44 | 0.31 | 6.30 | 0.31 | 5.60 | > 40 | 4.49
O=C(CSc1cc[nH]c(=O)n1)NC1C2CC3CC(C2)CC1C3 (stereo not shown) [compound 4, N-(Adamantan-2-Yl)-2-((2-Oxo-1,2-Dihydropyrimidin-4-Yl)Thio)Acetamide] | 7.3 | 0.61 | 6.36 | – | 5.77 | > 40 | 5.88
CC(C)Cc1cc(C(=O)NCCC23CC4CC(CC(C4)C2)C3)nc(=O)[nH]1 [compound 5, N-(2-(Adamantan-1-Yl)Ethyl)-6-Isobutyl-2-Oxo-1,2-Dihydropyrimidine-4-Carboxamide] | – | – | 4.45 | – | < 4.40 | > 40 | –
O=C(CNc1cc[nH]c(=O)n1)NC12CC3CC(CC(C3)C1)C2 [compound 6, N-(adamantan-1-yl)-2-((2-oxo-1,2-dihydropyrimidin-4-yl)amino)acetamide] | – | – | 4.93 | – | < 4.40 | > 40 | –
O=C(COc1cc[nH]c(=O)n1)NC1C2CC3CC(C2)CC1C3 (stereo not shown) [compound 8, N-(Adamantan-2-Yl)-2-((2-Oxo-1,2-Dihydropyrimidin-4-Yl)Oxy)Acetamide] | 1.05 | 0.21 | < 4.40 | 0.08 | < 4.40 | > 40 | 1.94
Cc1cc(OCC(=O)NC23CC4CC(CC(C4)C2)C3)nc(=O)[nH]1 [compound 9, N-(Adamantan-1-Yl)-2-((6-Methyl-2-Oxo-1,2-Dihydropyrimidin-4-Yl)Oxy)Acetamide] | 1.81 | 3.5 | 5.92 | 1.1 | 4.70 | > 40 | 1.37
CC(C)Cc1cc(OCC(=O)NC23CC4CC(CC(C4)C2)C3)nc(=O)[nH]1 [compound 10, N-(Adamantan-1-Yl)-2-((6-Isobutyl-2-Oxo-1,2-Dihydropyrimidin-4-Yl)Oxy)Acetamide] | 8.16 | 0.31 | 5.94 | 1.2 | 4.71 | > 40 | 2.74
O=C(COc1cc(C2CC2)[nH]c(=O)n1)NC12CC3CC(CC(C3)C1)C2 [compound 11, N-(Adamantan-1-Yl)-2-((6-Cyclopropyl-2-Oxo-1,2-Dihydropyrimidin-4-Yl)Oxy)Acetamide] | 1.05 | 0.56 | 6.62 | 1.1 | 4.69 | > 40 | 2.97
CC(C)(C)c1ccc(NC(=O)c2cc[nH]c(=O)n2)cc1 [compound 30, N-(4-(Tert.-Butyl)Phenyl)-2-Oxo-1,2-Dihydropyrimidine-4-Carboxamide] | – | – | 4.58 | – | < 4.40 | > 40 | –
CC(C)Cc1cc(C(=O)Nc2ccc(C(C)(C)C)cc2)nc(=O)[nH]1 [compound 31, N-(4-(Tert.-Butyl)Phenyl)-6-Isobutyl-2-Oxo-1,2-Dihydropyrimidine-4-Carboxamide] | – | – | 4.88 | – | < 4.40 | > 40 | –
O=C(COc1cc(OCCO)[nH]c(=O)n1)NC12CC3CC(CC(C3)C1)C2 [compound 32, N-(adamantan-1-yl)-2-((6-(2-hydroxyethoxy)-2-oxo-1,2-dihydropyrimidin-4-yl)oxy)acetamide] | 3.45 | 0.61 | 5.33 | – | < 4.40 | > 40 | –
O=C(COc1nc(=O)[nH]c(N2CCOCC2)c1F)NC12CC3CC(CC(C3)C1)C2 [compound 33, N-(Adamantan-1-Yl)-2-((5-Fluoro-6-Morpholino-2-Oxo-1,2-Dihydropyrimidin-4-Yl)Oxy)Acetamide] | 6.08 | 0.15 | 5.74 | – | 4.62 | > 40 | –
CCCCOC(=O)c1cc(SCC(=O)NC23CC4CC(CC(C4)C2)C3)nc(=O)[nH]1 [compound 39, Butyl 6-((2-((-Adamantan-1-Yl)Amino)-2-Oxoethyl)Thio)-2-Oxo-2,3-Dihydropyrimidine-4-Carboxylate] | – | – | < 4.40 | – | < 4.40 | > 40 | –
O=C(CSc1cc(C(=O)O)[nH]c(=O)n1)NC12CC3CC(CC(C3)C1)C2 [compound 40, 6-((2-((adamantan-1-yl)amino)-2-oxoethyl)thio)-2-oxo-2,3-dihydropyrimidine-4-carboxylic acid] | – | – | < 4.40 | – | < 4.40 | > 40 | –
O=C(CSc1cc[nH]c(=O)n1)NCC12CC3CC(CC(C3)C1)C2 [compound 41, N-((Adamantan-1-Yl)Methyl)-2-((2-Oxo-1,2-Dihydropyrimidin-4-Yl)Thio)Acetamide] | – | – | < 4.40 | – | < 4.40 | > 40 | –
O=C(NC12CC3CC(CC(C3)C1)C2)c1cc[nH]c(=O)n1 [compound 42, N-((Adamantan-1-Yl)-2-Oxo-1,2-Dihydropyrimidine-4-Carboxamide] | – | – | < 4.40 | – | < 4.40 | > 40 | –
CC(C)Cc1cc(C(=O)NC23CC4CC(CC(C4)C2)C3)nc(=O)[nH]1 [compound 43, N-(Adamantan-1-Yl)-6-Isobutyl-2-Oxo-1,2-Dihydropyrimidine-4-Carboxamide] | – | – | < 4.40 | – | < 4.40 | > 40 | –
O=C(COc1cc(OC2COC2)[nH]c(=O)n1)NC12CC3CC(CC(C3)C1)C2 [compound 53, N-(Adamantan-1-Yl)-2-((6-(Oxetan-3-Yloxy)-2-Oxo-1,2-Dihydropyrimidin-4-Yl)Oxy)Acetamide] | – | – | 4.55 | – | < 4.40 | > 40 | –
CC(C)Oc1[nH]c(=O)nc(OCC(=O)NC23CC4CC(CC(C4)C2)C3)c1F [compound 54, N-(Adamantan-1-Yl)-2-((5-Fluoro-6-Isopropoxy-2-Oxo-1,2-Dihydropyrimidin-4-Yl)Oxy)Acetamide] | – | – | 4.67 | – | < 4.40 | > 40 | –
O=C(COc1cc(OCC(F)(F)F)[nH]c(=O)n1)NC12CC3CC(CC(C3)C1)C2 [compound 57, N-(adamantan-1-yl)-2-((2-oxo-6-(2,2,2-trifluoroethoxy)-1,2-dihydropyrimidin-4-yl)oxy)acetamide] | 7.79 | 0.3 | 5.53 | – | < 4.40 | > 40 | –
